Source: EP1242382B1, “TRICYCLIC PROTEIN KINASE INHIBITORS” (Wyeth, priority 1999, dated 2001)

Columns and labels:
HT-29 cells = test: Cell proliferation test procedure, HT-29 cells (MTS); assay type: cell-based; settings: Homo sapiens, read-out: HT-29 prolif %Inh
Protocol: HT-29 cells: Compound effectiveness at inhibiting cell proliferation on plastic is performed in a 96-well format by plating 5000 cells per well in appropriate medium on day one, followed by compound addition on day 2 in serial two-fold dilutions. On day five, compound is washed away and medium containing MTS reagent (Promega) is added. Relative cell number is determined by reading the absorbance at 490nm of a dye produced by an NAD-dependent cellular enzymatic reaction.

[1] = tested on: Rat2 fibroblasts stably transformed with v-Src/Hu c-Src fusion gene; test: Anchorage independent Src-transformed fibroblast proliferation test procedure; assay type: cell-based; settings: Rattus norvegicus, read-out: Src TF prolif %Inh
Text: Anchorage Independent Src-transformed Fibroblast Proliferation Test Procedure: Rat2 fibroblasts stably transformed with a plasmid containing a CMV promotor controlled v-Src/Hu c-Src fusion gene in which the catalytic domain of human c-Src is inserted in place of the v-Src catalytic domain in the v-Src gene are used for the measurement of src dependent suspension growth.

Raf-1 (c-Raf) = biological target: T1, Raf-1 (c-Raf) (Homo sapiens, UniProt P04049); test: Raf1 kinase cascade assay procedure; assay type: biochemical
T1 construct: Sf9 insect cell lysate containing full length 6his-tagged recombinant human c-Raf; host or cells: c-Raf: Sf9 insect cell lysate; MEK1 and MAPK: E. coli
T1 sequence (P04049 whole entry): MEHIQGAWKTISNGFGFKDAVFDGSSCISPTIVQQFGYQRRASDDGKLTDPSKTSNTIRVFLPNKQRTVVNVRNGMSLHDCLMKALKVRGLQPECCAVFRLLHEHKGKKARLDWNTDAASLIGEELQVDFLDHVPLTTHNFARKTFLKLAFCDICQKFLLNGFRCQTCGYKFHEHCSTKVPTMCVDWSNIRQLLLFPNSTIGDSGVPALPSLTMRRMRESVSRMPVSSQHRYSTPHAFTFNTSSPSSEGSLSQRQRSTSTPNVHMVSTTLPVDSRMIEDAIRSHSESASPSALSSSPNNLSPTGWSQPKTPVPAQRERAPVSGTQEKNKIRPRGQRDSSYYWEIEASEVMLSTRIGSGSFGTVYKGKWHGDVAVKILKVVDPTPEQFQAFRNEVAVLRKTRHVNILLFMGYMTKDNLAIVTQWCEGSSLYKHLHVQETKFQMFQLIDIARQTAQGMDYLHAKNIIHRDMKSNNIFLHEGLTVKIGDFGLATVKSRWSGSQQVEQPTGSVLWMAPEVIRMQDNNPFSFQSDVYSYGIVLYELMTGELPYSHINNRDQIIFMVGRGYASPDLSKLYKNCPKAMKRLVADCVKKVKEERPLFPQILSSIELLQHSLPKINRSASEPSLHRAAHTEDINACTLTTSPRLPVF
Protocol: (Specific Activity: ~200U/ml). Human Non-active Mek-1-GST and human GST-MAP kinase (recombinant proteins produced in E. coli).
• 1. Assay Dilution Buffer (ADB): 20mM MOPS, pH 7.2, 25mM β-glycerol phosphate, 5mM EGTA, 1mM sodium orthovanadate, 1mM dithiothreitol. • 2. Magnesium/ATP Cocktail: 500µM cold ATP and 75 mM magnesium chloride in ADB. • 4. Active Kinase: Human Active c-Raf: Use at 0.4U per assay point • 5. Non-active GST-MEK1: Use at 0.1µg per assay point. • 6. Non-active GST-p42 MAP Kinase: Use at 1.0 µg per assay point
• 1. TBST - Tris (50 mM, pH 7.5), NaCl (150 mM), Tween-20 (0.05 %) • 2. Superblock (Pierce) • 3. Anti-GST Ab (Pharmacia) • 4. Anti-Phospho MAPK (Sigma) • 5. Anti-Mouse Ab / Europium conjugate (Wallac)
First Stage: c-Raf Dependent Activation of GST-MEK and GST-MAPK • 1. Add […] of ADB per assay (i.e. per well of a 96 well plate) • 2. Add 10 ml of 0.5 mM cold ATP and 75 mM magnesium chloride in ADB. • 3. Add 2 ml of c-Raf (0.4U/assay), in conjunction with 1.6ml non-active MEK1 ([…]). • 4. Add 4 ml of non-active GST-p42 MAP Kinase (1.0 mg/assay). • 5. Incubate for 60 minutes at 30°C in a shaking incubator. • 6. Transfer this mixture to an anti-GST Ab coated 96 well plate (Nunc Immunosorb plates coated o/n with a-GST, then blocked with Pierce Superblock). • 7. Incubate for 60 minutes at 30°C in a shaking incubator Wash 3X with TBST, add Anti-Phospho MAPK (Sigma) (1:3000) • 6. Incubate for 60 minutes at 30°C in a shaking incubator • 7. Wash 3X with TBST, add Anti-Mouse Ab / Europium conjugate (Wallac) (1:500) • 8. Incubate for 60 minutes at 30°C in a shaking incubator • 9. Wash 3X with TBST, Read plates in Wallac Victor model Plate Reader. • 10. Collect data analyze in Excel for single point and IC50 determinations.
Typically Raf-1 assay is run at compound concentrations from 10 µM to 1 nM in half log dilutions. (% inhibition is determined for each compound concentration).

[2] = biological target: T2, Kinase insert Domain containing Receptor (KDR; the catalytic domain of the VEGF receptor) (Homo sapiens, UniProt P35968); test: Inhibition of Kinase insert Domain containing Receptor (KDR); assay type: biochemical; settings: read-out: KDR %Inh (10 µM)
T2 construct: KDR; the catalytic domain of the VEGF receptor
T2 sequence (P35968 834-1162 limits assumed): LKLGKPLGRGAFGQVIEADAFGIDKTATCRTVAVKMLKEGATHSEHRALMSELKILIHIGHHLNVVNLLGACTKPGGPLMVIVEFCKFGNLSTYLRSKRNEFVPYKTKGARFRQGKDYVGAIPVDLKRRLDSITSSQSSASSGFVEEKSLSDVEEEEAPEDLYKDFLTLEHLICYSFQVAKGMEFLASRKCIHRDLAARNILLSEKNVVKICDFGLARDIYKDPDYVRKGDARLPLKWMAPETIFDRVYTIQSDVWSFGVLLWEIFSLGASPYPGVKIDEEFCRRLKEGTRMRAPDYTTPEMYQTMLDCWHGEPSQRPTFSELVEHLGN
Protocol: KDR protein is mixed, in the presence or absence of a inhibitor compound, with a substrate peptide to be phosphorylated (a copolymer of glutamic acid and tyrosine, E:Y :: 4:1) and other cofactors such as Mg^++ and sodium vanadate (a protein tyrosine phosphatase inhibitor) in an appropriate buffer to maintain pH (7.2). ATP and a radioactive tracer (either P^32- or P^33-labeled ATP) is then added to initiate phosphorylation. After incubation, the radioactive phosphate associated with the acid-insoluble fraction of the test procedure mixture is then quantified as reflection of substrate phosphorylation.

p60^c-src (Src) = biological target: T3, p60^c-src (Src) (Homo sapiens, UniProt P12931); test: Src kinase test procedure (Elisa format); assay type: biochemical; settings: dose 10 µM; read-out: Src %Inh
T3 construct: purchased Upstate Biotechnologies
T3 sequence (P12931 whole entry): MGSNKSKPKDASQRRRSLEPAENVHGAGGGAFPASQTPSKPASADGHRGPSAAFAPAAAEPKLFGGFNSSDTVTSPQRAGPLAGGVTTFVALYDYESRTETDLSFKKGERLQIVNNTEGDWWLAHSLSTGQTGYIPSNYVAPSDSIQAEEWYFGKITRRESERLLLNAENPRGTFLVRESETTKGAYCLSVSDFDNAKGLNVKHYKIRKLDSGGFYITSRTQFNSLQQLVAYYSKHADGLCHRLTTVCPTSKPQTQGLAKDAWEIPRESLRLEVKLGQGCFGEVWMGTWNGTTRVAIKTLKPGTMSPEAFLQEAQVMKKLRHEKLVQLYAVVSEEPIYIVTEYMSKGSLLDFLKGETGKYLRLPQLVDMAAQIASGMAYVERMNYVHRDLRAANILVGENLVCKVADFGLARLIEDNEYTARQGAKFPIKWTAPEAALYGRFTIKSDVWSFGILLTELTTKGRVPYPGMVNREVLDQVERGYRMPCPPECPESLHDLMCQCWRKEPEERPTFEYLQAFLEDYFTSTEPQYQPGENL
Protocol: Inhibitors of p60^c-src (partially purified preparation purchased from Upstate Biotechnologies) tyrosine kinase activity are analyzed in an Elisa format. […] HRP-conjugated anti-phosphotyrosine is used to detect phosphorylated peptide via a color reaction. Conditions recommended by the manufacturer are employed.
Reaction conditions: Five microliter aliquots of each compound prepared fresh at the time of the assay are added as a solution in 10mM HEPES pH 7.5, 10% DMSO to the reaction well. Thirty-five microliters of reaction mix containing Src, buffer and peptide/bovine serum albumin mix are added to the compound wells and incubated at 30°C for 10 minutes (reaction buffer: 50mM TrisHCl pH 7.5, 10mM MgCl2, 0.1mM EGTA, 0.5mM Na3VO4). The reaction is started by addition of 10 microliters of ATP, incubated at 30°C for 1 hour, and stopped by addition of 20 microliters of 0.5M EDTA. The reaction mixture with the phosphorylated peptide is then transferred to a streptavidin-coated microtiter plate (provided in the kit) and allowed to bind for 20 minutes. Unbound peptide and reaction mixture is decanted and the plate is washed with PBS six times. Horseradish peroxidase-conjugated phosphotyrosine antibody supplied in the kit is incubated with the plate for one hour, then decanted. The plate is again washed with PBS six times.

[3] = tested on: Human adenocarcinoma cell line LoVo; test: Cell based screen for inhibitors of Raf kinase, quantitative assay; settings: 96 h, four days incubation
Protocol: (§1) • Cell Lines: Human adenocarcinoma cell line LoVo which is known to be growth inhibited by low nM concentrations of a reference standard inhibitor of Ras and human adenocarcinoma cell line CaCo-2, which is known to be growth resistant to the same reference compound. • Cell Media : RPMI 1640 with 10% Fetal Bovine Serum supplemented with L-glutamine and Pennicilin/Streptomycin. • Compounds: Supplied usually as a 10 mM stock in 100% DMSO. • Normal Saline: 150 mM NaCl • Trichloroacetic Acid (TCA): 50% (w/v) in water • Sulforhodamine B (SRB): 0.4% (w/v) in 1% Acetic Acid • Tris Base: 10 mM in water
(§2) Cells are plated at 2000 cells per well for cell line LoVo and 1500 cells for cell line CaCo-2 in 96 well plates. Cells are plated in media (200 µl) and allowed to adhere overnight at 37°C. At 24 hours post plating, compounds are added directly at a volume of 0.5 µl. For the qualitative screen (compounds screened at 25 µM) compound is added directly to cells. For the quantitative screen, compound is first diluted in DMSO to generate concentrations of compound or reference standard of: 1, 5, 10 and 25 µM. It is advisable to make the dilutions in an identical 96 well plate so that compounds can be added using a multichannel micropipettor set at 0.5 µl. The cells are then incubated for four days after which the media is removed using a 12 well manifold by first tipping the plate forward at a 45 degree angle and then inserting the manifold in an upright orientation to prevent the tips of the manifold from disturbing cells at the bottom of the plate. 200 µl of normal saline is then added to each well using an 8 well multichannel pipettor, followed by the careful addition of 50 µl of 50% TCA. The plates are then incubated for 2 hours at 4°C, after which the supernatant is removed using the same technique as above and the plated washed twice with 200 µl water. The plates are then air dried and 50 µl of SRB stock solution is carefully added so that the entire bottom of each well is covered. This again can be used using an 8 well multichannel pipettor. The SRB is incubated with fixed cells for 15 minutes at room temperature after which the SRB is removed with the manifold as described above and the plates washed twice with 350 µl of 1% acetic acid per well each time. The plates are then air dried after which the bound SRB is released from protein by the addition of 200 µl of Tris base. Resolubilizing the SRB is aided by placing the plates on a rotator for 15-30 minutes. The absorbance of each well is determined at 550 or 562 nm using a microtiter plate reader.
(§3) Each compound or dilution thereof is performed in triplicate. Outliers are identified by visual inspection of the data. Each plate should have a "0" control (vehicle only).
(§4) Quantitative Assay: A standard curve is constructed by plotting the concentration of compound against the average absorbance calculated at that concentration. […] Multiple entries for a given compound indicate that it is tested multiple times.

[4] = tested on: human adenocarcinoma cell line CaCo-2; test: as above; settings: Caco-2, 96 h, four days incubation
Protocol: as §1, §2, §3, §4

BxPC3 = test: as above; settings: Homo sapiens, BXPC-3
LnCAP = test: as above; settings: Homo sapiens

Compound | inhibition at 10 µM (HT-29 cells) [%] | IC50 (Raf-1 (c-Raf)) [µM] | IC50 [3] [µM] | IC50 [4] [µM] | IC50 (BxPC3) [µM] | IC50 (LnCAP) [µM] | other results
N#Cc1cnc2c(c1Nc1ccc(Cl)cc1Br)C=C1N=CN=C1C2 [Example 38, 8-(2-Bromo-4-chlorophenylamino)imidazo[4,5-g]quinoline-7-carbonitrile] | 25 |  |  |  |  |  | inhibition at 10 µM [1]: 0%
COc1cc(Nc2c(C#N)cnc3c2C=C2N=CN=C2C3)c(Br)cc1Cl [Example 39, 8-(2-Bromo-4-chloro-5-methoxyphenylamino)imidazo[4,5-g]quinoline-7-carbonitrile] | 35 | 0.9 |  |  |  |  | inhibition at 10 µM [1]: 25%
COc1ccc(Cl)c(Nc2c(C#N)cnc3c2C=C2N=CN=C2C3)c1 [Example 40, 8-(2-Chloro-5-methoxy-phenylamino)imidazo[4,5-g]quinoline-7-carbonitrile] | 10 | 0.7 |  |  |  |  | inhibition at 10 µM [1]: 0%
COc1cc(Nc2c(C#N)cnc3c2C=C2N=CN=C2C3)cc(OC)c1OC [Example 42, 8-(3,4,5-Trimethoxyanilino)imidazo[4,5-g]quinoline-7-carbonitrile] | 0 |  |  |  |  |  | inhibition at 0.22 µM ([1]; @ dose 0.22 µM): 50%
Cc1ccc(Nc2c(C#N)cnc3c2sc2ccccc23)cc1O [Example 70, 4-(3-Hydroxy-4-methylphenylamino)benzo[4,5]thieno[3,2-b]pyridine-3-carbonitrile] |  |  |  |  |  |  | inhibition at 10 µM [2]: 22%
Cc1ccc(Nc2c(C#N)cnc3c2oc2ccccc23)cc1O [Example 87, 4-(3-Hydroxy-4-methylphenylamino)benzo[4,5]furo[3,2-b]pyridine-3-carbonitrile] |  |  |  |  |  |  | inhibition at 10 µM [2]: 32%; inhibition at 10 µM (p60^c-src (Src)): 0%
COc1cc2cc3c(Nc4ccc(Sc5nccn5C)c(Cl)c4)c(C#N)cnc3cc2cc1OCCN1CCOCC1 [Example 149, 4-[3-Chloro-4-(1-methyl-1H-imidazol-2-ylsulfanyl)phenylamino]-7-methoxy-8-(2-morpholin-4-yl-ethoxy)benzo[g]quinoline-3-carbonitrile] |  | 0.004 | 0.006 | 0.9 | 0.037 | 0.053 | 
COc1cc2cc3c(Nc4ccc(Sc5nccn5C)c(Cl)c4)c(C#N)cnc3cc2cc1OCCCN1CCOCC1 [Example 151, 4-[3-Chloro-4-(1-methyl-1H-imidazol-2-ylsulfanyl)phenylamino]-7-methoxy-8-(3-morpholin-4-yl-propoxy)benzo[g]quinoline-3-carbonitrile] |  | 0.007 | 0.0085 | 0.7 | 0.04 | 0.012 | 
COc1cc2cc3c(Nc4ccc(Sc5nccn5C)c(Cl)c4)c(C#N)cnc3cc2cc1OCCN1CCN(C)CC1 [Example 152] |  | 0.008 | 0.029 | > 1 | 0.04 | 0.032 | 
COc1cc2cc3c(Nc4ccc(Sc5nccn5C)c(Cl)c4)c(C#N)cnc3cc2cc1OCCn1nccn1 [Example 153, 4-[3-chloro-4-(1-methyl-1H-imidazol-2-ylsulfanyl)phenylamino]-7-methoxy-8-(2-[1,2,3]triazol-2-yl-ethoxy)benzo[g]quinoline-3-carbonitrile] |  | 0.012 | 0.0094 | > 1 | 0.038 | 0.019 | 
COc1cc2cc3c(Nc4ccc(Sc5nccn5C)c(Cl)c4)c(C#N)cnc3cc2cc1OCCn1ccnn1 [Example 154, 4-[3-Chloro-4-(1-methyl-1H-imidazol-2-ylsulfanyl)phenylamino]-7-methoxy-8-(2-[1,2,3]triazol-1-yl-ethoxy)benzo[g]quinoline-3-carbonitrile] |  | 0.008 | 0.043 | > 1 | 0.04 |  | 
